Assay results published in ChEMBL document CHEMBL1201862, “PubChem BioAssay data set” (2004).
The source made the active and inactive calls.

Columns and labels:
[1] = biological target: Serine/threonine-protein phosphatase (Homo sapiens, UniProt Q9BPW0); assay: inhibition of protein phosphatase 5 activity – biochemical, fluorescence, dose response (AID 2395)
[2] = biological target: Serine/threonine-protein phosphatase PP1-alpha catalytic subunit (Homo sapiens, UniProt P62136); assay: inhibition of protein phosphatase 1 activity – biochemical, fluorescence, dose response (AID 2394)
Caspase-3 = biological target: T1, Caspase-3 (Homo sapiens, UniProt P42574); assay type: functional;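 further: Dose-response selectivity test against caspase-3 for candidate inhibitors of sentrin-specific proteases (SENPs)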
T1 sequence (P42574 whole entry): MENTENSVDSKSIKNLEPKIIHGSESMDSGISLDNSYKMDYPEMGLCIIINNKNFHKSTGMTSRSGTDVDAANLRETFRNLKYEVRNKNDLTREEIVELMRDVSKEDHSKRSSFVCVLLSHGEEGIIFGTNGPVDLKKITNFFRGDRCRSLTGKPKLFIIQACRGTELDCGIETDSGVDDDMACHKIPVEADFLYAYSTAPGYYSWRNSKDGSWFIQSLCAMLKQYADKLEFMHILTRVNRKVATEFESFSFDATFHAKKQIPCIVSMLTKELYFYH

[3] = Luminescence Cell-Based Dose Confirmation HTS to Identify Inhibitors of Platelet Dense Granule Release. [Related pubchem assays: 1663 (Primary HTS), 1678 (Summary of Project)]; assay type: functional
[4] = biological target: Heat shock protein HSP 90-alpha (Homo sapiens, UniProt P07900); assay type: functional, organism-based
INS1 = assay: INS-1E survival protection against cytokine death – cell-based, luminescence, retest, dose response (AID 449756); assay type: functional; settings: Rattus norvegicus;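 further: cell death triggered by IL-1 beta plus TNF-alpha plus IFN-gamma mixture; protective hits raise ATP signal compared with cytokine alone wells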
[5] = loss of viability in HepG2 cells – cell-based, CellTiter-Glo, cherry-picked, cytotoxicity control for Shn3 inhibitor project, dose response (AID 624134); assay type: functional
[6] = Luminescence Cell-Based Dose Response HTS to Identify Inhibitors of 5'UTR Stem-Loop Driven Prion Protein mRNA Translation in H4 Neuroglioblastoma Cells. [Related pubchem assays: 1827 (Project Summary), 1813 (Primary HTS)]; assay type: functional
[7] = fluconazole-exposed Candida albicans growth modulators – fluorescence, retest, confirmation (AID 2467); assay type: functional, cell-based
[8] = biological target: T2, Ubiquitin-conjugating enzyme E2 N (Homo sapiens, UniProt P61088); assay type: functional;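 further: Dose-response confirmation in a TR-FRET assay detecting UBC13-driven polyubiquitin chain formation, inhibition measured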
T2 sequence (P61088 whole entry): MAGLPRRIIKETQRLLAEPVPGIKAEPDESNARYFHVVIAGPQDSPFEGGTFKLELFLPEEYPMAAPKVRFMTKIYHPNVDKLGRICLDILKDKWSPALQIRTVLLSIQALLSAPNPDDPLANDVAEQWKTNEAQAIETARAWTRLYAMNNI

Streptokinase A = biological target: T3, Streptokinase A (Streptococcus pyogenes serotype M1, UniProt P10520); assay: viability-normalized secreted streptokinase activity reduction – plasminogen activation absorbance, OD405, dose response (AID 1914); assay type: functional, Streptococcus pyogenes M1 GAS;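 further: secreted streptokinase activity via plasminogen activation per viability signal from cell pellet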
T3 sequence (P10520 whole entry): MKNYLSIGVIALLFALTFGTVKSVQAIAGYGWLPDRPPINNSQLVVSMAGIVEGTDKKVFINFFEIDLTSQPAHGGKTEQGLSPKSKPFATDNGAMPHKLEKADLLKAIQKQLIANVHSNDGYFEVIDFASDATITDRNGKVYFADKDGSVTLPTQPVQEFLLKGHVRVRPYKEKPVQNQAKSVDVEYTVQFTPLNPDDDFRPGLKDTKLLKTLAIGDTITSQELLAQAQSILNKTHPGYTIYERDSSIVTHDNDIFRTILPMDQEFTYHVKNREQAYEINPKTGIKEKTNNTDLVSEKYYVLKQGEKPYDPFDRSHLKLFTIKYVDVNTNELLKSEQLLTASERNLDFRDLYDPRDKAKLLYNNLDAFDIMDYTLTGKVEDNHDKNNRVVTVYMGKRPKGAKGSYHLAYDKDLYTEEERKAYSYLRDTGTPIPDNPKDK

[9] = biological target: cGMP-dependent protein kinase 1 (Homo sapiens, UniProt Q13976); assay type: functional;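 further: value from a kinome panel screen with PRKG1 as the panel member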
[10] = biological target: Tyrosine-protein kinase ITK/TSK (Homo sapiens, UniProt Q08881); assay type: functional;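 further: affinity for ITK measured as one member of a broad kinase panel profiling binding across the kinome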
[11] = biological target: BDNF/NT-3 growth factors receptor (Homo sapiens, UniProt Q16620); assay type: functional;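 further: NTRK2 measured as one member of a broad kinome-wide kinase profiling panel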
[12] = biological target: Protein-tyrosine kinase 2-beta (Homo sapiens, UniProt Q14289); assay type: functional
[13] = biological target: MAP/microtubule affinity-regulating kinase 3 (Homo sapiens, UniProt P27448); assay type: functional;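 further: MARK3 affinity measured as one member of a kinome panel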
[14] = biological target: Serine/threonine-protein kinase BRSK1 (Homo sapiens, UniProt Q8TDC3); assay type: functional;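 further: measured within a kinome-wide kinase panel, with the target listed as KIAA1811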
[15] = biological target: Fibroblast growth factor receptor 1 (Homo sapiens, UniProt P11362); assay type: functional
[16] = biological target: Fibroblast growth factor receptor 3 (Homo sapiens, UniProt P22607); assay type: functional
[17] = biological target: Tyrosine-protein kinase ABL1 (Homo sapiens, UniProt P00519); assay type: functional
[18] = biological target: Homeodomain-interacting protein kinase 4 (Homo sapiens, UniProt Q8NE63); assay type: functional
[19] = biological target: Dual specificity tyrosine-phosphorylation-regulated kinase 1A (Homo sapiens, UniProt Q13627); assay type: functional;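 further: measured against DYRK1A as one member of a broad kinome profiling panel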
[20] = biological target: MAP kinase-activated protein kinase 5 (Homo sapiens, UniProt Q8IW41); assay type: functional;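 further: measured as one member of a kinome panel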
[21] = biological target: Testis-specific serine/threonine-protein kinase 1 (Homo sapiens, UniProt Q9BXA7); assay type: functional
[22] = biological target: Inhibitor of nuclear factor kappa-B kinase subunit alpha (Homo sapiens, UniProt O15111); assay type: functional
[23] = biological target: Cell division cycle 7-related protein kinase (Homo sapiens, UniProt O00311); assay type: functional;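 further: value obtained from a kinome-wide kinase panel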
[24] = biological target: MAP kinase-activated protein kinase 2 (Homo sapiens, UniProt P49137); assay type: functional;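 further: measured as one member of a kinome-wide kinase panel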
[25] = biological target: Mast/stem cell growth factor receptor Kit (Homo sapiens, UniProt P10721); assay type: functional;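 further: KIT entry within a kinase panel assay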
[26] = biological target: Cyclin-dependent kinase 5 (Homo sapiens, UniProt Q00535); assay type: functional;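 further: CDK5 measured as one member of a kinase profiling panel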

MAP/microtubule affinity-regulating kinase 3, sequence (P27448 whole entry): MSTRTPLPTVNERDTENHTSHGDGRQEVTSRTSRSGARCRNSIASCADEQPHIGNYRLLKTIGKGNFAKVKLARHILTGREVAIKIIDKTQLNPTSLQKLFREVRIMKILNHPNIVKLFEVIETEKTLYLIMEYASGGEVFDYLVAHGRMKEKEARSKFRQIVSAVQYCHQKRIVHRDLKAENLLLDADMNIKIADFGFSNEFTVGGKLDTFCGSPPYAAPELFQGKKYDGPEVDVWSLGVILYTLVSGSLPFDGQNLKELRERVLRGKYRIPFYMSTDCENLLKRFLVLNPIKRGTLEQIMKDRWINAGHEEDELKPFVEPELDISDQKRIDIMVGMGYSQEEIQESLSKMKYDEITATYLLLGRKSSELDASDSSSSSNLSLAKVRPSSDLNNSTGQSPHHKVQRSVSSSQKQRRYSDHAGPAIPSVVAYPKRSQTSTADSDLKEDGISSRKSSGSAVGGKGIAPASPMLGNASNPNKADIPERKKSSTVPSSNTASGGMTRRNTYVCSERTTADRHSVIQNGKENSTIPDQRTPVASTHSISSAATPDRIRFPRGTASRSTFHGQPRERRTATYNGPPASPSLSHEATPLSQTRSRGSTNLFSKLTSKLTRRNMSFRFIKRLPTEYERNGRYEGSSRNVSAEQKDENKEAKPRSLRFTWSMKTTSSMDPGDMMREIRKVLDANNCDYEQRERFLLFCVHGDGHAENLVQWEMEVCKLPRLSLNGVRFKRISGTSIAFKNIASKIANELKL
Cell division cycle 7-related protein kinase, sequence (O00311 whole entry): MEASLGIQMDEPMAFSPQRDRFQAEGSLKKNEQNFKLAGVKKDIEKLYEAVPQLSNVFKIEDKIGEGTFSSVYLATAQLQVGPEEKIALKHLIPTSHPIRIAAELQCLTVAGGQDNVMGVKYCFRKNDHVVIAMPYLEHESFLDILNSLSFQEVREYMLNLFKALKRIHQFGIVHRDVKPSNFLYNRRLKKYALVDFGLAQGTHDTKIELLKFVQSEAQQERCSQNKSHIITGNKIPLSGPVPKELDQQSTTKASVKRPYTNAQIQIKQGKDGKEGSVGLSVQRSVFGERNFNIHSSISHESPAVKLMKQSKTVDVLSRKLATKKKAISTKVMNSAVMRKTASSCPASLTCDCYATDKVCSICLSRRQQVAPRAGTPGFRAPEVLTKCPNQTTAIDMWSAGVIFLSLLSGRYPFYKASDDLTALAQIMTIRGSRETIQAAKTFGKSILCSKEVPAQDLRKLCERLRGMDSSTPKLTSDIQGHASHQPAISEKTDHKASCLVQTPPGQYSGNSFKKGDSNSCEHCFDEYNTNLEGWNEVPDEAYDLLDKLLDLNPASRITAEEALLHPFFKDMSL
Homeodomain-interacting protein kinase 4, sequence (Q8NE63 whole entry): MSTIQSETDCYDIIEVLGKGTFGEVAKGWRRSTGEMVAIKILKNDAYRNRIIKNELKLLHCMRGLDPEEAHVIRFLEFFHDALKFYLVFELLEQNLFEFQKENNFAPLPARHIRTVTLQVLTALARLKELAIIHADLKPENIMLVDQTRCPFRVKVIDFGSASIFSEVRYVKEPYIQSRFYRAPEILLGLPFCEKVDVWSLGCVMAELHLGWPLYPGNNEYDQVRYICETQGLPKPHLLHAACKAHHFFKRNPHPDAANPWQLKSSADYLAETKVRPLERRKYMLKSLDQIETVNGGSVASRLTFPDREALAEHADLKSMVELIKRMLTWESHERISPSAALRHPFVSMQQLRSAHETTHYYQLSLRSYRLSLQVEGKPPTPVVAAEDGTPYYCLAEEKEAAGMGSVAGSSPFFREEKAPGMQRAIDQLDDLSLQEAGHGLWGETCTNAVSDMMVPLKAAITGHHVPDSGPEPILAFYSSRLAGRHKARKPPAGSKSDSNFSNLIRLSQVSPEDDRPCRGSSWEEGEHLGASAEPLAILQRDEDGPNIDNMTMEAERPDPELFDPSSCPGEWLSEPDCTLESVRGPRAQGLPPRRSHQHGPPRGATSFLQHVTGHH
Fibroblast growth factor receptor 3, sequence (P22607 whole entry): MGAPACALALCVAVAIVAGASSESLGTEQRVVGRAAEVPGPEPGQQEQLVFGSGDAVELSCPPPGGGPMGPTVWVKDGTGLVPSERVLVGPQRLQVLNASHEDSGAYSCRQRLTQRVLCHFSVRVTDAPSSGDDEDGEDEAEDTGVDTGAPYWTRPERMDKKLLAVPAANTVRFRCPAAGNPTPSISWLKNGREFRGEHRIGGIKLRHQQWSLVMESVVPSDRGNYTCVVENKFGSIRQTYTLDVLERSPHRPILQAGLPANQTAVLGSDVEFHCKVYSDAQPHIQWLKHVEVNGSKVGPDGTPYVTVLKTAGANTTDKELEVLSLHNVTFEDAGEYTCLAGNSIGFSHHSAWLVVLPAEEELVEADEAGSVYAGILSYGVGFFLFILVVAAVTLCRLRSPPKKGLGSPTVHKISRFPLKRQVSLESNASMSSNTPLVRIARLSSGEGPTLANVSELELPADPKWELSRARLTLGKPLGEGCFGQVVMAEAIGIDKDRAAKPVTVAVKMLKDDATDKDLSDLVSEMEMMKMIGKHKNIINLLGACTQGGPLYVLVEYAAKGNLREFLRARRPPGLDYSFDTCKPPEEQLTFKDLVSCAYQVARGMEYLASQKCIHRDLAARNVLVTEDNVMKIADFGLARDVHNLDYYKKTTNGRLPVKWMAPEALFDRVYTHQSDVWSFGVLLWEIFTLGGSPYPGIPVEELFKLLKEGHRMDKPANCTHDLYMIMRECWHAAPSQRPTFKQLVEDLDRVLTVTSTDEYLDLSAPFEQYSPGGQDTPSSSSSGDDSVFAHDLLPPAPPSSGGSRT
Protein-tyrosine kinase 2-beta, sequence (Q14289 whole entry): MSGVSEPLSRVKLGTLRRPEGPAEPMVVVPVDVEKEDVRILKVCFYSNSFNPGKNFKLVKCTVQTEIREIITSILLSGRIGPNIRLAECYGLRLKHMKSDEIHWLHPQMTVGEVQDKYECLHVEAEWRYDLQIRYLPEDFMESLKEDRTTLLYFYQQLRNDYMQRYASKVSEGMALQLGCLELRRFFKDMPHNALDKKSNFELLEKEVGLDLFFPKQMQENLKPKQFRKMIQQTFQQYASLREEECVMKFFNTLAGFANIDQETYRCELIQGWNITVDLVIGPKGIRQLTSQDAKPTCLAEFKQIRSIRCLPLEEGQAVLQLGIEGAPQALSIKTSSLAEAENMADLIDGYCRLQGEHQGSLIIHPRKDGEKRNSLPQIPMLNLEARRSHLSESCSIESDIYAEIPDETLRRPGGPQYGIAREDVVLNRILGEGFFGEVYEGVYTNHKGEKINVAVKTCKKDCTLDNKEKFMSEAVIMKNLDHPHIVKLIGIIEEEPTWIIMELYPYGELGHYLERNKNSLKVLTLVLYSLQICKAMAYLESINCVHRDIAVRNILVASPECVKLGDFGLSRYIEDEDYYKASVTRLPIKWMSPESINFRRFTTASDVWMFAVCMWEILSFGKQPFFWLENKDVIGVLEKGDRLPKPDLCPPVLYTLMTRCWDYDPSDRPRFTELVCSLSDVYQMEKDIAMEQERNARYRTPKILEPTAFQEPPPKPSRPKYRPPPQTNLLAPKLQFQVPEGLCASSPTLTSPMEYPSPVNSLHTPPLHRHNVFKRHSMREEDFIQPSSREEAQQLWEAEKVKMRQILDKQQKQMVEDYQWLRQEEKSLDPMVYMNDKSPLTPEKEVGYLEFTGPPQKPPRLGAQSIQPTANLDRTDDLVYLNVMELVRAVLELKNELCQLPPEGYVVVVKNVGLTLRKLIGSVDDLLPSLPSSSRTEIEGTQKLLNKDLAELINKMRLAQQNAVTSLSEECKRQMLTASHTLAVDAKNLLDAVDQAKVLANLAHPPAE
Inhibitor of nuclear factor kappa-B kinase subunit alpha, sequence (O15111 whole entry): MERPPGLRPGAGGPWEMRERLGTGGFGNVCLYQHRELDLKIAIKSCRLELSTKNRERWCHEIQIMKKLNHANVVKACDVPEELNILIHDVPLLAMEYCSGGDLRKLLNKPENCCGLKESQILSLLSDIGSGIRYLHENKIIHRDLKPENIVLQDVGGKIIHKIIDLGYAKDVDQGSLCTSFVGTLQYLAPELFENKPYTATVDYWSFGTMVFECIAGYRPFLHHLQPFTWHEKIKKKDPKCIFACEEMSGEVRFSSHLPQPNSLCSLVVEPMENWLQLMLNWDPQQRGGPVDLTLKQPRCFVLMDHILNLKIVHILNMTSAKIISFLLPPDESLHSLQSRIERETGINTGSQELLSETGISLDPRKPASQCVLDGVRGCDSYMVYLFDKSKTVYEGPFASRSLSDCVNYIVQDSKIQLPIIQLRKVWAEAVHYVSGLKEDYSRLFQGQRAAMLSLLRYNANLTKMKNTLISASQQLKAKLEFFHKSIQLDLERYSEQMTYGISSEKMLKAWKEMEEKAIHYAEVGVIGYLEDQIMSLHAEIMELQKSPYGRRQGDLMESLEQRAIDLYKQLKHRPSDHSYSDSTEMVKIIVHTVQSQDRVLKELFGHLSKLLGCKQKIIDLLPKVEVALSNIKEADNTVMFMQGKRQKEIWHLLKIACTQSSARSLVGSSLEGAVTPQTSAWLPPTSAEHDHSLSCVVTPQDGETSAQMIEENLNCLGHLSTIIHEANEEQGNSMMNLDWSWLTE
Serine/threonine-protein phosphatase PP1-alpha catalytic subunit, sequence (P62136 whole entry): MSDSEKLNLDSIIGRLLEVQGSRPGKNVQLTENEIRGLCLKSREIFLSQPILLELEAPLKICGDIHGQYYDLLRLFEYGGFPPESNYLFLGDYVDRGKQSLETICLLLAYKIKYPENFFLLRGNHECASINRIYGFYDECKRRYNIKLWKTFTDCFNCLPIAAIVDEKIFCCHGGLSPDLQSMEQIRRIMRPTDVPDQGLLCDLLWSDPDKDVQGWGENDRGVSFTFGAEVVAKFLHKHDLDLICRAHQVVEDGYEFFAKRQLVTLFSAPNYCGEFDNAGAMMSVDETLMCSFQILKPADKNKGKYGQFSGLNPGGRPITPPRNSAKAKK

Cc1ccc(C(=O)NC2(O)C(=O)c3ccccc3C2=O)cc1C
IC50 [1]: > 828 nM (active)
IC50 [2]: > 67 µM (not active)
IC50 (Caspase-3): > 100 µM (inactive)

O=[N+]([O-])c1c(Nc2ccccn2)cc(Cl)c2nonc12
EC50 [3]: 3.55 µM (active)
AC50 [4]: 1.93 µM (active)
AC50 (INS1): 6.13 µM (active)

CC[C@@H](C)[C@H](CNC)NC[C@@H](Cc1cccc2ccccc12)NCCc1cccc(C(F)(F)F)c1
AC50 [5]: 9.13 µM (active)
EC50 [6]: > 120 µM (not active)
EC50 [7]: > 38 µM (not active)
IC50 [8]: > 20 µM (inactive)

Cc1ccc(S(=O)(=O)/N=C2\C=C(Nc3cccc(C(=O)O)c3)C(=O)c3ccccc32)cc1
EC50 (Streptokinase A): 47.3 µM (active)

CC(C)(CO)CNc1nccc(-c2c(-c3ccc(F)cc3)nc3c(CC4CC4)nccn23)n1
Ki [9]: > 2 µM (inactive)
Ki [10]: > 1.58 µM (inactive)
Ki [11]: > 5.01 µM (inactive)
Ki [12]: > 1.58 µM (inactive)
Ki [13]: > 6.31 µM (inactive)
Ki [14]: > 10 µM (inactive)
Ki [15]: > 5.01 µM (inactive)
Ki [16]: > 2 µM (inactive)
Ki [17]: > 631 nM (inactive)
Ki [18]: > 7.94 µM (inactive)
Ki [19]: 2.51 µM (active)
Ki [20]: > 1.58 µM (inactive)
Ki [21]: > 1.58 µM (inactive)
Ki [22]: > 3.98 µM (inactive)
Ki [23]: > 1.26 µM (inactive)
Ki [24]: > 7.94 µM (inactive)
Ki [25]: > 1.26 µM (inactive)
Ki [26]: > 10 µM (inactive)
